Where two headings read alike, the source gives them in different places.
Tests used:
Test in all cases: Glasshouse assay for herbicidal activity (pre- and post-emergence), percentage phytotoxicity
Assay type in all cases: in vivo
Avena fatua (AVEFA) = details: Avena fatua
Method in brief: (§1)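 Pot-grown plants treated one day after sowing (pre-emergence) or at about 12 days (post-emergence); glasshouse at 24/18° C (warm) or 20/16° C (cool species) day/night, 16 h light, 65% humidity. Visual % phytotoxicity (0 = none, 100 = total damage) scored at 15 DAA post or 20 DAA pre.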

Lolium perenne (LOLPE) = details: Lolium perenne
Method in brief: as §1

[1] = test system: Alopecurus myosuroides (ALOMY); details: Alopecurus myosuroides
Method in brief: as §1

[2] = test system: Echinochloa crus-galli (ECHCG); details: Echinochloa crus-galli
Method in brief: as §1

[3] = post-emergence, 360 h, 250 g/ha, post-emergence, 15 DAA, visual assessment (100%=total damage, 0%=no damage), read-out: Post-emergence herbicidal activity (percentage phytotoxicity) AVEFA POST
[4] = pre-emergence, 480 h, 250 g/ha, pre-emergence, 20 DAA, visual assessment (100%=total damage, 0%=no damage), read-out: Pre-emergence herbicidal activity (percentage phytotoxicity) AVEFA PRE
[5] = post-emergence, 360 h, 250 g/ha, post-emergence, 15 DAA, visual assessment (100%=total damage, 0%=no damage), read-out: Post-emergence herbicidal activity (percentage phytotoxicity) LOLPE POST
[6] = pre-emergence, 480 h, 250 g/ha, pre-emergence, 20 DAA, visual assessment (100%=total damage, 0%=no damage), read-out: Pre-emergence herbicidal activity (percentage phytotoxicity) LOLPE PRE
[7] = post-emergence, 360 h, 250 g/ha, post-emergence, 15 DAA, visual assessment (100%=total damage, 0%=no damage), read-out: Post-emergence herbicidal activity (percentage phytotoxicity) ALOMY POST
[8] = pre-emergence, 480 h, 250 g/ha, pre-emergence, 20 DAA, visual assessment (100%=total damage, 0%=no damage), read-out: Pre-emergence herbicidal activity (percentage phytotoxicity) ALOMY PRE
[9] = post-emergence, 360 h, 250 g/ha, post-emergence, 15 DAA, visual assessment (100%=total damage, 0%=no damage), read-out: Post-emergence herbicidal activity (percentage phytotoxicity) ECHCG POST
[10] = pre-emergence, 480 h, 250 g/ha, pre-emergence, 20 DAA, visual assessment (100%=total damage, 0%=no damage), read-out: Pre-emergence herbicidal activity (percentage phytotoxicity) ECHCG PRE
[11] = post-emergence, 360 h, POST-emergence, rate 250 g/ha, visual score 15 DAA (100%=total damage, 0%=no damage), read-out: Post-emergence herbicidal activity (percentage phytotoxicity) AVEFA POST
[12] = pre-emergence, 480 h, PRE-emergence, rate 250 g/ha, visual score 20 DAA (100%=total damage, 0%=no damage), read-out: Pre-emergence herbicidal activity (percentage phytotoxicity) AVEFA PRE
[13] = post-emergence, 360 h, POST-emergence, rate 250 g/ha, visual score 15 DAA (100%=total damage, 0%=no damage), read-out: Post-emergence herbicidal activity (percentage phytotoxicity) LOLPE POST
[14] = pre-emergence, 480 h, PRE-emergence, rate 250 g/ha, visual score 20 DAA (100%=total damage, 0%=no damage), read-out: Pre-emergence herbicidal activity (percentage phytotoxicity) LOLPE PRE
[15] = post-emergence, 360 h, POST-emergence, rate 250 g/ha, visual score 15 DAA (100%=total damage, 0%=no damage), read-out: Post-emergence herbicidal activity (percentage phytotoxicity) ALOMY POST
[16] = pre-emergence, 480 h, PRE-emergence, rate 250 g/ha, visual score 20 DAA (100%=total damage, 0%=no damage), read-out: Pre-emergence herbicidal activity (percentage phytotoxicity) ALOMY PRE
[17] = post-emergence, 360 h, POST-emergence, rate 250 g/ha, visual score 15 DAA (100%=total damage, 0%=no damage), read-out: Post-emergence herbicidal activity (percentage phytotoxicity) ECHCG POST
[18] = pre-emergence, 480 h, PRE-emergence, rate 250 g/ha, visual score 20 DAA (100%=total damage, 0%=no damage), read-out: Pre-emergence herbicidal activity (percentage phytotoxicity) ECHCG PRE
[19] = post-emergence, 360 h, Rate 250 g/ha, post-emergence, visual assessment 15 DAA, 100%=total damage, 0%=no damage, read-out: Post-emergence herbicidal activity (percentage phytotoxicity) AVEFA POST
[20] = pre-emergence, 480 h, Rate 250 g/ha, pre-emergence, visual assessment 20 DAA, 100%=total damage, 0%=no damage, read-out: Pre-emergence herbicidal activity (percentage phytotoxicity) AVEFA PRE
[21] = post-emergence, 360 h, Rate 250 g/ha, post-emergence, visual assessment 15 DAA, 100%=total damage, 0%=no damage, read-out: Post-emergence herbicidal activity (percentage phytotoxicity) LOLPE POST
[22] = pre-emergence, 480 h, Rate 250 g/ha, pre-emergence, visual assessment 20 DAA, 100%=total damage, 0%=no damage, read-out: Pre-emergence herbicidal activity (percentage phytotoxicity) LOLPE PRE
[23] = post-emergence, 360 h, Rate 250 g/ha, post-emergence, visual assessment 15 DAA, 100%=total damage, 0%=no damage, read-out: Post-emergence herbicidal activity (percentage phytotoxicity) ALOMY POST
[24] = pre-emergence, 480 h, Rate 250 g/ha, pre-emergence, visual assessment 20 DAA, 100%=total damage, 0%=no damage, read-out: Pre-emergence herbicidal activity (percentage phytotoxicity) ALOMY PRE
[25] = post-emergence, 360 h, Rate 250 g/ha, post-emergence, visual assessment 15 DAA, 100%=total damage, 0%=no damage, read-out: Post-emergence herbicidal activity (percentage phytotoxicity) ECHCG POST
[26] = pre-emergence, 480 h, Rate 250 g/ha, pre-emergence, visual assessment 20 DAA, 100%=total damage, 0%=no damage, read-out: Pre-emergence herbicidal activity (percentage phytotoxicity) ECHCG PRE

## C=CCC(C)(C)NC(=O)CC1CC(=O)C(c2c(C)cc(C)cc2C)C1=O (centres unmarked) [Compound B27]
Avena fatua (AVEFA); [3]
  pest or weed control at 250 g/ha: 70%
Avena fatua (AVEFA); [4]
  pest or weed control at 250 g/ha: 20%
Lolium perenne (LOLPE); [5]
  pest or weed control at 250 g/ha: 70%
Lolium perenne (LOLPE); [6]
  pest or weed control at 250 g/ha: 60%
[1]; [7]
  pest or weed control at 250 g/ha: 70%
[1]; [8]
  pest or weed control at 250 g/ha: 30%
[2]; [9]
  pest or weed control at 250 g/ha: 40%
[2]; [10]
  pest or weed control at 250 g/ha: 60%

## Cc1cc(-n2cc(Cl)cn2)cc(C)c1C1C(=O)CC(CC(=O)NCc2ccc(C#N)cc2)C1=O (centres unmarked) [Compound B225]
Avena fatua (AVEFA); [11]
  pest or weed control at 250 g/ha: 70%
Avena fatua (AVEFA); [12]
  pest or weed control at 250 g/ha: 0%
Lolium perenne (LOLPE); [13]
  pest or weed control at 250 g/ha: 60%
Lolium perenne (LOLPE); [14]
  pest or weed control at 250 g/ha: 0%
[1]; [15]
  pest or weed control at 250 g/ha: 60%
[1]; [16]
  pest or weed control at 250 g/ha: 0%
[2]; [17]
  pest or weed control at 250 g/ha: 70%
[2]; [18]
  pest or weed control at 250 g/ha: 0%

## Cc1cc(-c2ncc(F)cc2F)cc(C)c1C1C(=O)CC(CC(=O)NCc2ccc(F)cc2)C1=O (centres unmarked) [Compound B72]
Avena fatua (AVEFA); [3]
  pest or weed control at 250 g/ha: 100%
Avena fatua (AVEFA); [4]
  pest or weed control at 250 g/ha: 70%
Lolium perenne (LOLPE); [5]
  pest or weed control at 250 g/ha: 100%
Lolium perenne (LOLPE); [6]
  pest or weed control at 250 g/ha: 100%
[1]; [7]
  pest or weed control at 250 g/ha: 100%
[1]; [8]
  pest or weed control at 250 g/ha: 100%
[2]; [9]
  pest or weed control at 250 g/ha: 100%
[2]; [10]
  pest or weed control at 250 g/ha: 100%

## CCN(C)C(=O)CC1CC(=O)C(c2c(C)cc(OCC(F)(F)F)cc2C)C1=O (centres unmarked) [Compound B211]
Avena fatua (AVEFA); [11]
  pest or weed control at 250 g/ha: 90%
Avena fatua (AVEFA); [12]
  pest or weed control at 250 g/ha: 80%
Lolium perenne (LOLPE); [13]
  pest or weed control at 250 g/ha: 90%
[1]; [15]
  pest or weed control at 250 g/ha: 90%
[1]; [16]
  pest or weed control at 250 g/ha: 90%
[2]; [17]
  pest or weed control at 250 g/ha: 100%
[2]; [18]
  pest or weed control at 250 g/ha: 100%

## C/C=C/c1cc(C)c(C2C(=O)CC(CC(=O)NC(C)C)C2=O)c(C)c1 (centres unmarked) [Compound B245]
Avena fatua (AVEFA); [11]
  pest or weed control at 250 g/ha: 100%
Avena fatua (AVEFA); [12]
  pest or weed control at 250 g/ha: 90%
Lolium perenne (LOLPE); [13]
  pest or weed control at 250 g/ha: 100%
Lolium perenne (LOLPE); [14]
  pest or weed control at 250 g/ha: 90%
[1]; [15]
  pest or weed control at 250 g/ha: 100%
[1]; [16]
  pest or weed control at 250 g/ha: 100%
[2]; [17]
  pest or weed control at 250 g/ha: 100%
[2]; [18]
  pest or weed control at 250 g/ha: 90%

## CCCCCNC(=O)CC1CC(=O)C(c2c(C)cc(C)cc2C)C1=O (centres unmarked) [Compound A177]
Avena fatua (AVEFA); post-emergence, 360 h, post-emergence, 250 g/ha, 15 DAA, visual score (100%=total damage; 0%=no damage), read-out: AVEFA POST herbicidal activity (percentage phytotoxicity)
  pest or weed control at 250 g/ha: 80%
Avena fatua (AVEFA); pre-emergence, 480 h, pre-emergence, 250 g/ha, 20 DAA, visual score (100%=total damage; 0%=no damage), read-out: AVEFA PRE herbicidal activity (percentage phytotoxicity)
  pest or weed control at 250 g/ha: 60%
Lolium perenne (LOLPE); post-emergence, 360 h, post-emergence, 250 g/ha, 15 DAA, visual score (100%=total damage; 0%=no damage), read-out: LOLPE POST herbicidal activity (percentage phytotoxicity)
  pest or weed control at 250 g/ha: 80%
Lolium perenne (LOLPE); pre-emergence, 480 h, pre-emergence, 250 g/ha, 20 DAA, visual score (100%=total damage; 0%=no damage), read-out: LOLPE PRE herbicidal activity (percentage phytotoxicity)
  pest or weed control at 250 g/ha: 100%
[1]; post-emergence, 360 h, post-emergence, 250 g/ha, 15 DAA, visual score (100%=total damage; 0%=no damage), read-out: ALOMY POST herbicidal activity (percentage phytotoxicity)
  pest or weed control at 250 g/ha: 80%
[1]; pre-emergence, 480 h, pre-emergence, 250 g/ha, 20 DAA, visual score (100%=total damage; 0%=no damage), read-out: ALOMY PRE herbicidal activity (percentage phytotoxicity)
  pest or weed control at 250 g/ha: 100%
[2]; post-emergence, 360 h, post-emergence, 250 g/ha, 15 DAA, visual score (100%=total damage; 0%=no damage), read-out: ECHCG POST herbicidal activity (percentage phytotoxicity)
  pest or weed control at 250 g/ha: 90%
[2]; pre-emergence, 480 h, pre-emergence, 250 g/ha, 20 DAA, visual score (100%=total damage; 0%=no damage), read-out: ECHCG PRE herbicidal activity (percentage phytotoxicity)
  pest or weed control at 250 g/ha: 90%

## CC(C)=CNC(=O)CC1CC(=O)C(c2c(C)cc(-c3ccc(C#N)cn3)cc2C)C1=O (centres unmarked) [Compound B319]
Avena fatua (AVEFA); [11]
  pest or weed control at 250 g/ha: 80%
Avena fatua (AVEFA); [12]
  pest or weed control at 250 g/ha: 0%
Lolium perenne (LOLPE); [13]
  pest or weed control at 250 g/ha: 60%
Lolium perenne (LOLPE); [14]
  pest or weed control at 250 g/ha: 0%
[1]; [15]
  pest or weed control at 250 g/ha: 70%
[1]; [16]
  pest or weed control at 250 g/ha: 0%
[2]; [17]
  pest or weed control at 250 g/ha: 100%
[2]; [18]
  pest or weed control at 250 g/ha: 0%

## C=C(C)CNC(=O)CC1CC(=O)C(c2c(C)cc(-c3ncc(Cl)cn3)cc2C)C1=O (centres unmarked) [Compound B341]
Avena fatua (AVEFA); [19]
  pest or weed control at 250 g/ha: 100%
Avena fatua (AVEFA); [20]
  pest or weed control at 250 g/ha: 80%
Lolium perenne (LOLPE); [21]
  pest or weed control at 250 g/ha: 100%
Lolium perenne (LOLPE); [22]
  pest or weed control at 250 g/ha: 80%
[1]; [23]
  pest or weed control at 250 g/ha: 100%
[1]; [24]
  pest or weed control at 250 g/ha: 100%
[2]; [25]
  pest or weed control at 250 g/ha: 100%
[2]; [26]
  pest or weed control at 250 g/ha: 100%

## Cc1cc(-c2ncc(Cl)cn2)cc(C)c1C1C(=O)CC(CC(=O)NCc2cccc(Br)c2)C1=O (centres unmarked) [Compound B339]
Avena fatua (AVEFA); [19]
  pest or weed control at 250 g/ha: 100%
Avena fatua (AVEFA); [20]
  pest or weed control at 250 g/ha: 70%
Lolium perenne (LOLPE); [21]
  pest or weed control at 250 g/ha: 100%
Lolium perenne (LOLPE); [22]
  pest or weed control at 250 g/ha: 90%
[1]; [23]
  pest or weed control at 250 g/ha: 100%
[1]; [24]
  pest or weed control at 250 g/ha: 40%
[2]; [25]
  pest or weed control at 250 g/ha: 100%
[2]; [26]
  pest or weed control at 250 g/ha: 100%
